Patent US20240376099A1, “COMPOUNDS AND COMPOSITIONS AS INHIBITORS OF ENDOSOMAL TOLL-LIKE RECEPTORS” (Novartis AG, priority 2016, published 2024)

molecular target: T1, TLR8 (Homo sapiens, UniProt Q9NR97); test: huPBMC TLR8 Antagonist IL-6 TR-FRET Assay; assay type: cell-based; parameters: Fresh blood was collected from normal human donors; endogenous in cells; host or cells: human PBMCs from fresh donor blood; details: human PBMCs stimulated with ssRNA40 1 μg/ml (DOTAP), 14-16 hrs; IL-6 TR-FRET read-out
T1 sequence (Q9NR97 27-1041): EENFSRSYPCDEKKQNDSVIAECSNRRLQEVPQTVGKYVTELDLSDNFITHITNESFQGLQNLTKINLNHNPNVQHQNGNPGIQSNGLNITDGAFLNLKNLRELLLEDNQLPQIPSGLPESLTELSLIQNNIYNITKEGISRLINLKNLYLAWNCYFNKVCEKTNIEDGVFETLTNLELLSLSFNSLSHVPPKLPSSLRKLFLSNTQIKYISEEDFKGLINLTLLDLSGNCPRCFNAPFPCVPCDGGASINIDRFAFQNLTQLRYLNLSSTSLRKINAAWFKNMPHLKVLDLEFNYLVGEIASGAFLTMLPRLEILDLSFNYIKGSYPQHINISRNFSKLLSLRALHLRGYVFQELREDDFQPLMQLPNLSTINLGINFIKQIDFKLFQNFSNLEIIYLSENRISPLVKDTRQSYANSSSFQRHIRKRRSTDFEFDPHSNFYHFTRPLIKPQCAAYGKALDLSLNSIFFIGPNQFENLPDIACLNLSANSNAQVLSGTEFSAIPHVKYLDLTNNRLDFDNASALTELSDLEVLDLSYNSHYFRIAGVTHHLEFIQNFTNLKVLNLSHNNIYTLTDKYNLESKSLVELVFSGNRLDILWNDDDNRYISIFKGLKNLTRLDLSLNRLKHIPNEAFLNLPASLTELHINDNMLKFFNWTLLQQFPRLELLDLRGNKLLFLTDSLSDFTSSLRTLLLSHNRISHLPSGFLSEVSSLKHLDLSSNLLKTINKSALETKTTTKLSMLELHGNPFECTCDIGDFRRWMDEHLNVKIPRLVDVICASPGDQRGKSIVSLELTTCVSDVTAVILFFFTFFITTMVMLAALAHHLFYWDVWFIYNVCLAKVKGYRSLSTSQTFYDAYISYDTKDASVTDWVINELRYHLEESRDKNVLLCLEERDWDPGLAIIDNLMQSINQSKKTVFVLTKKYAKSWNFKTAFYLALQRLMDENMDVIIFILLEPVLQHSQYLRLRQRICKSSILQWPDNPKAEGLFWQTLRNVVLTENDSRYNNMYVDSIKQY
Outline: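 Human PBMCs from fresh donor blood (150,000 cells/well) stimulated 14–16 h at 37 °C with DOTAP-complexed ssRNA40 (final 1 μg/ml for TLR8, 10 μg/mL for TLR7) or ODN2216 (final 0.3 μM, TLR9), 0.25% DMSO, ten-point 1/3 compound dilutions. Supernatant IL-6 read by HTRF (TLR8); IFNα by IFNα2b AlphaLISA (TLR7/TLR9).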

IC50 [nM]	SMILES
31	CCNCC(=O)NC12CCC(Cn3nc(C)c4c3CCN(c3nc(C)nc5[nH]ncc35)C4)(CC1)CC2 [compound 20, 2-(ethylamino)-N-(4-((3-methyl-5-(6-methyl-1H-pyrazolo[3,4-d]pyrimidin-4-yl)-4,5,6,7-tetrahydro-1H-pyrazolo[4,3-c]pyridin-1-yl)methyl)bicyclo[2.2.2]octan-1-yl)acetamide]
36	Cc1nc(N2CCc3c(c(C)nn3CC34CCC(N5CCOCC5)(CC3)CC4)C2)c2cn[nH]c2n1 [compound 21, 4-(4-((3-methyl-5-(6-methyl-1H-pyrazolo[3,4-d]pyrimidin-4-yl)-4,5,6,7-tetrahydro-1H-pyrazolo[4,3-c]pyridin-1-yl)methyl)bicyclo[2.2.2]octan-1-yl)morpholine]
14	CCNCC(=O)NC12CCC(Cn3nc(C)c4c3CCN(c3nc(C)nc5c(C)nn(C)c35)C4)(CC1)CC2 [compound 22, 2-(ethylamino)-N-(4-((3-methyl-5-(1,3,5-trimethyl-1H-pyrazolo[4,3-c]pyrimidin-7-yl)-4,5,6,7-tetrahydro-1H-pyrazolo[4,3-c]pyridin-1-yl)methyl)bicyclo[2.2.2]octan-1-yl)acetamide]
373	Cc1nc(N2CCc3c(c(C)nn3CC34CCC(NCC5COC5)(CC3)CC4)C2)c2c(n1)c(C)nn2C [compound 23, 4-((3-methyl-5-(1,3,5-trimethyl-1H-pyrazolo[4,3-c]pyrimidin-7-yl)-4,5,6,7-tetrahydro-1H-pyrazolo[4,3-c]pyridin-1-yl)methyl)-N-(oxetan-3-ylmethyl)bicyclo[2.2.2]octan-1-amine]
10	Cc1nc(N2CCc3c(c(C)nn3CC34CCC(NC(=O)CCN(C)C)(CC3)CC4)C2)c2c(n1)c(C)nn2C [compound 24, 3-(dimethyalmino)-N-(4-((3-methyl-5-(1,3,5-trimethyl-1H-pyrazolo[4,3-d]pyrimidin-7-yl)-4,5,6,7-tetrahydro-1H-pyrazolo[4,3-c]pyridin-1-yl)methyl)bicyclo[2.2.2]octan-1-yl)propanamide]
17	Cc1nc(N2CCc3c(c(C)nn3CC34CCC(N5CCOCC5)(CC3)CC4)C2)c2c(n1)c(C)nn2C [compound 25, 4-(4-((3-methyl-5-(1,3,5-trimethyl-1H-pyrazolo[4,3-d]pyrimidin-7-yl)-4,5,6,7-tetrahydro-1H-pyrazolo[4,3-c]pyridin-1-yl)methyl)bicyclo[2.2.2]octan-1-yl)morpholine]
14	Cc1nc(N2CCc3c(c(C)nn3CC34CCC(NC5CCC5)(CC3)CC4)C2)c2c(n1)c(C)nn2C [compound 27, N-cyclobutyl-4-((3-methyl-5-(1,3,5-trimethyl-1H-pyrazolo[4,3-d]pyrimidin-7-yl)-4,5,6,7-tetrahydro-1H-pyrazolo[4,3-c]pyridin-1-yl)methyl)bicyclo[2.2.2]octan-1-amine]
641	Cc1nc(N2CCc3c(c(C)nn3CC34CCC(N(C5CCC5)C5CCC5)(CC3)CC4)C2)c2c(n1)c(C)nn2C [compound 28, N,N-dicyclobutyl-4-((3-methyl-5-(1,3,5-trimethyl-1H-pyrazolo[4,3-d]pyrimidin-7-yl)-4,5,6,7-tetrahydro-1H-pyrazolo[4,3-c]pyridin-1-yl)methyl)bicyclo[2.2.2]octan-1-amine]
16	Cc1nc(N2CCc3c(c(C)nn3CC34CCC(N5CCCCC5)(CC3)CC4)C2)c2cn[nH]c2n1 [compound 29, 6-methyl-4-(3-methyl-1-((4-(piperidin-1-yl)bicyclo[2.2.2]octan-1-yl)methyl)-6,7-dihydro-1H-pyrazolo[4,3-c]pyridin-5(4H)-yl)-1H-pyrazolo[3,4-d]pyrimidine]
324	Cc1nc(N2CCc3c(c(C)nn3CC34CCC(N5CCCC5)(CC3)CC4)C2)c2cn[nH]c2n1 [compound 30, 6-methyl-4-(3-methyl-1-((4-(pyrrolidin-1-yl)bicyclo[2.2.2]octan-1-yl)methyl)-6,7-dihydro-1H-pyrazolo[4,3-c]pyridin-5(4H)-yl)-1H-pyrazolo[3,4-d]pyrimidine]
27	Cc1nc(N2CCc3c(c(C)nn3CC34CCC(NCC5(CO)COC5)(CC3)CC4)C2)c2c(n1)c(C)nn2C [compound 31, (3-(((4-((3-methyl-5-(1,3,5-trimethyl-1H-pyrazolo[4,3-d]pyrimidin-7-yl)-4,5,6,7-tetrahydro-1H-pyrazolo[4,3-c]pyridin-1-yl)methyl)bicyclo[2.2.2]octan-1-yl)amino)methyl)oxetan-3-yl)methanol]
72	Cc1nc(N2CCc3c(c(C)nn3CC34CCC(NC(=O)[C@@H]5COCCN5)(CC3)CC4)C2)c2c(n1)c(C)nn2C [compound 33, (S)-N-(4-((3-methyl-5-(1,3,5-trimethyl-1H-pyrazolo[4,3-d]pyrimidin-7-yl)-4,5,6,7-tetrahydro-1H-pyrazolo[4,3-c]pyridin-1-yl)methyl)bicyclo[2.2.2]octan-1-yl)morpholine-3-carboxamide]
29	Cc1nc(N2CCc3c(c(C)nn3CC34CCC(NC(=O)[C@@H]5CNCCO5)(CC3)CC4)C2)c2c(n1)c(C)nn2C [compound 34, (S)-N-(4-((3-methyl-5-(1,3,5-trimethyl-1H-pyrazolo[4,3-d]pyrimidin-7-yl)-4,5,6,7-tetrahydro-1H-pyrazolo[4,3-c]pyridin-1-yl)methyl)bicyclo[2.2.2]octan-1-yl)morpholine-2-carboxamide]
80	Cc1nc(N2CCc3c(c(C)nn3CC34CCC(NC(=O)[C@H]5CNCCO5)(CC3)CC4)C2)c2c(n1)c(C)nn2C [compound 36, (R)-N-(4-((3-methyl-5-(1,3,5-trimethyl-1H-pyrazolo[4,3-d]pyrimidin-7-yl)-4,5,6,7-tetrahydro-1H-pyrazolo[4,3-c]pyridin-1-yl)methyl)bicyclo[2.2.2]octan-1-yl)morpholine-2-carboxamide]
79	Cc1nc(N2CCc3c(c(C)nn3CC34CCC(N5CCOCC5)(CC3)CC4)C2)c2c(C)noc2n1 [compound 37, 3,6-dimethyl-4-(3-methyl-1-((4-morpholinobicyclo[2.2.2]octan-1-yl)methyl)-6,7-dihydro-1H-pyrazolo[4,3-c]pyridin-5(4H)-yl)isoxazolo[5,4-d]pyrimidine]
31	Cc1nc(N2CCc3c(c(C)nn3CC34CCC(N5CCCCC5)(CC3)CC4)C2)c2c(n1)c(C)nn2C [compound 38, 1,3,5-trimethyl-7-(3-methyl-1-((4-(piperidin-1-yl)bicyclo[2.2.2]octan-1-yl)methyl)-6,7-dihydro-1H-pyrazolo[4,3-c]pyridin-5(4H)-yl)-1H-pyrazolo[4,3-d]pyrimidine]
119	Cc1nc(N2CCc3c(c(C)nn3CC34CCC(N5CCCCC5)(CC3)CC4)C2)c2cnn(C)c2n1 [compound 39, 1,6-dimethyl-4-(3-methyl-1-((4-(piperidin-1-yl)bicyclo[2.2.2]octan-1-yl)methyl)-6,7-dihydro-1H-pyrazolo[4,3-c]pyridin-5(4H)-yl)-1H-pyrazolo[3,4-c]pyrimidine]
314	[2H]C([2H])([2H])N(C([2H])([2H])[2H])C12CCC(Cn3nc(C)c4c3CCN(c3nc(C)nc5c(C)nn(C)c35)C4)(CC1)CC2 [compound 40, 4-((3-methyl-5-(1,3,5-trimethyl-1H-pyrazolo[4,3-d]pyrimidin-7-yl)-4,5,6,7-tetrahydro-1H-pyrazolo[4,3-c]pyridin-1-yl)methyl)-N,N-bis(trideuteromethyl)bicyclo[2.2.2]octan-1-amine]
4590	Cc1nn(CC23CCC(N)(CC2)CC3)c2c1CN(c1ccnc3[nH]ncc13)CC2 [compound 41, 4-((3-methyl-5-(1H-pyrazolo[3,4-b]pyridin-4-yl)-4,5,6,7-tetrahydro-1H-pyrazolo[4,3-c]pyridin-1-yl)methyl)bicyclo[2.2.2]octan-1-amine]
> 10000	Cc1c2c(nn1CC13CCC(N)(CC1)CC3)CCN(c1ccnc3[nH]ncc13)C2 [compound 42, 4-((3-methyl-5-(1H-pyrazolo[3,4-b]pyridin-4-yl)-4,5,6,7-tetrahydro-2H-pyrazolo[4,3-c]pyridin-2-yl)methyl)bicyclo[2.2.2]octan-1-amine]
861	Cc1cc(N2CCc3c(c(C)nn3CC34CCC(N)(CC3)C4)C2)c2cnn(C)c2n1 [compound 44, 4-((5-(1,6-dimethyl-1H-pyrazolo[3,4-b]pyridin-4-yl)-3-methyl-4,5,6,7-tetrahydro-1H-pyrazolo[4,3-c]pyridin-1-yl)methyl)bicyclo[2.2.1]heptan-1-amine]
